In paper PMC11816618, “Pharmacokinetic profile and in vivo anticancer efficacy of anagrelide administered subcutaneously in rodents” (Drug Delivery, 2025):
Read-outs that look alike come from different tables or passages of the source.

Assays:
[1] = Long-term plasma exposure after a single SC ANA dose (56-day follow-up), plasma LC-MS/MS; type: in vivo, Sprague-Dawley rats; conditions: for AUC(0-inf) / AUC(0-t) / half-life / Cmax / Tmax: Sprague-Dawley, rat, male SD rats, n = 5, 56-day follow-up; for Cmax: read-out: Cmax; for Tmax: read-out: Tmax
Experimental: To monitor the sustained release of SC ANA in the long term, 10 male SD rats were treated with a single dose of either 7.0 mg/kg (n = 5) or 35.0 mg/kg (n = 5). The rats were purchased from SPF Biotechnology Co. Ltd. (Beijing, China). Animals were acclimated to the test facility for at least three days, during which their general health was checked by veterinary staff or other authorized personnel. Animals were kept in polycarbonate cages containing absorbent corncob bedding, with a maintained temperature range of +20-25 °C and a 12-h light/dark cycle. Animals had access to food and drinking water ad libitum during acclimation and the experiment. At the end of the study, the rats were euthanized by exposure to an increasing concentration of CO2. […] The SC formulation was prepared by dissolving micronized ANA (5 μm particle size) in an oily triglyceride ester of saturated caprylic and capric fatty acids and glycerol (Miglyol® 810 N, IOI Oleo GmbH, Hamburg, Germany). […] To evaluate plasma concentration-time profiles, blood samples were collected from the jugular vein in EDTA tubes and stored at -70 °C until further analysis. […] In the second PK analysis in rats with a longer follow-up time, blood samples were collected at 0, 30 min, 1 […], and 56 d after dosage. SD rat plasma was analyzed for ANA, 3-OH-ANA, and RL603 concentrations by Pharmaron (Beijing, China). ANA, 3-hydroxy-anagrelide (CAS No. 733043-41-9, Cat. No. sc-206647, Santa Cruz Biotechnology, Inc., Dallas, TX), and RL603 (CAS No. 327602-34-6, Cat. No. sc-391661, Santa Cruz Biotechnology, Inc., Dallas, TX) were used as reference items in calibration standards and quality control (QC) samples. The HPLC and the MS/MS (LCMS-8060) instruments were both from SHIMADZU (Kyoto, Japan), and the column used was a Raptor Biphenyl column (2.7 μm, 50 × 2.1 mm, Restek, Bellefonte, PA). The desired serial concentrations of working solutions were achieved by diluting analyte stock solution with 50% acetonitrile in water. […] QC samples at 0.5, 1, 2, 50, and 800 ng/mL were prepared independently of those used for the calibration curves. These QC samples were prepared on the day of analysis in the same way as calibration standards. Carbamazepine (CAS No. 298-46-4, Sigma-Aldrich, St. Louis, MO) was used as an internal standard for all analytes. Altogether, 55 μL of standards, 55 μL of QC samples, and 55 μL of test samples (comprising 50 μL of plasma and 5 μL of blank solution) were added to 200 μL of acetonitrile containing an internal standard mixture to precipitate protein. The samples were then vortexed for 30 seconds. After centrifugation at 4000 × g (+4 °C) for 5 min, the supernatant was diluted threefold with water, and 2 μL of the diluted supernatant was injected into the LC/MS/MS system for quantitative analysis. The transitions were 256.00-198.90 m/z for anagrelide hydrochloride, 272.00-198.95 m/z for 3-hydroxy anagrelide, 216.00-198.95 m/z for RL603, and 237.20-194.10 m/z for carbamazepine. […] Plasma drug concentration-time profiles were drawn by the average plasma concentrations at specific time points using Microsoft Excel (Redmond, WA). […] Certara, Princeton, NJ) software. Averages of each variable were used when PK values were compared.

[2] = Tolerability (body weight, well-being) during the UZLX-GIST2B efficacy experiment
Experimental: Before and during the treatments, tumor volumes (mm^3) were determined by three dimensional measurements (x × y × z) with a digital caliper. The treatments started after tumors reached an average volume between 150 and 300 mm^3, followed by randomizing the mice to the four treatment groups with an even tumor volume distribution per group. PO-treated mice received 2.5 mg/kg of ANA BID. Mice in the control group were injected with 50 µL of miglyol vehicle, and mice receiving SC ANA were injected Q4D with 35 mg/kg or 70 mg/kg into the loose skin between the shoulder blades (days 1, 5, and 9). During the experiment, tumor volumes were measured on days 1, 4, 8, and 11. In addition, animal well-being was visually monitored, and body weights were measured every day. Absolute tumor volume changes between the first and last days were considered as one of the measurements of treatment efficacy. […] Tumors were collected, weighed, and snap-frozen in liquid nitrogen, and livers of the mice were evaluated by visual inspection.
Statistical analyses were performed using IBM SPSS Statistics 28.0.0.0 (Chicago, IL). p Values below .05 were considered statistically significant. Statistical significance of body weights, tumor volumes, and tumor weights between the treatment groups was analyzed using the independent samples Kruskal–Wallis test and Dunn’s pairwise tests adjusted with Bonferroni’s correction. […]

[3] = Petrides et al., 2009, 2018, cited from earlier work
UZLX-GIST2B = test system: UZLX-GIST2B; set-up: method as in Pulkka et al., 2019; conditions: 5 mg/kg PO BID, in 11 days; ref Pulkka et al., 2019; cited from earlier work
[4] = Clinical observation during the rat PK experiments; type: in vivo, Sprague-Dawley rats; conditions: single dose IV 0.5, PO 2.5, SC 1.0, 7.0 or 35.0 mg/kg, SD rats
Experimental: To compare PK values of the three different administration routes, 11 male Sprague-Dawley® (SD) rats (6–8 weeks old) were administered a single dose of ANA either via IV injection (n = 3, 0.5 mg/kg), PO (n = 3, 2.5 mg/kg), or SC injection (n = 5, 1.0 mg/kg). To monitor the sustained release of SC ANA in the long term, 10 male SD rats were treated with a single dose of either 7.0 mg/kg (n = 5) or 35.0 mg/kg (n = 5). The rats were purchased from SPF Biotechnology Co. Ltd. (Beijing, China). Animals were acclimated to the test facility for at least three days, during which their general health was checked by veterinary staff or other authorized personnel. Animals were kept in polycarbonate cages containing absorbent corncob bedding, with a maintained temperature range of +20–25 °C and a 12-h light/dark cycle. Animals had access to food and drinking water ad libitum during acclimation and the experiment. At the end of the study, the rats were euthanized by exposure to an increasing concentration of CO2.

[5] = analyte in plasma after single SC ANA dose 7 mg/kg
[6] = analyte in plasma after single SC ANA dose 35 mg/kg

With `O=C1CN2Cc3c(ccc(Cl)c3Cl)N=C2N1` [Anagrelide, imidazo‐[2,1‐b] quinazolin‐2[3H]‐one, 6,7‐dichloro‐1,5‐dihydro, monohydro‐chloride] as the compound, how does the AUC(0-inf) [1, 5] read?
Its AUC(0-inf) is 1570 ± 388 ng·h/mL.

What about the AUC(0-t) [1, 5] of the same compound?
The AUC(0-t) was 1460 ± 148 ng·h/mL.

What about the half-life [1, 5] of the same compound?
The half-life was 293 h.

What about the Cmax [1, 5] of the same compound?
The Cmax was 6.78 ± 1.86 ng/mL.

What about the Tmax [1, 5] of the same compound?
The Tmax was 1 h.

And the AUC(0-inf) [1, 6]?
The AUC(0-inf) was 9480 ± 5270 ng·h/mL.

What about the AUC(0-t) [1, 6] of the same compound?
The AUC(0-t) was 6350 ± 666 ng·h/mL.

What about the half-life [1, 6] of the same compound?
Its half-life is 336 h.

And the Cmax [1, 6]?
The Cmax was 21.8 ± 8.62 ng/mL.

What about the Tmax [1, 6] of the same compound?
Its Tmax is 2.2 ± 1.64 h.

And the “time plasma concentrations were detected after a single administration” value ([1]; single SC administration in rats (7 or 35 mg/kg))?
The value was “up to 56 days”.

What about the relative body weight ([2]; 2.5 mg/kg PO BID, 11 days, still in the acceptable range, p = .016) of the same compound?
The relative body weight was “significantly lower relative body weights”.

And the “finding at the injection site” value ([2]; 35 or 70 mg/kg SC Q4D in miglyol)?
Its value is “drug precipitates near the injection site”.

And the “time of peak plasma concentration” value ([3]; after PO drug administration, ref Gaver et al., 1981)?
Its value is “approximately one hour”.

And the bioavailability ([3]; taken orally, ref Spencer & Brogden, 1994)?
Its bioavailability is “approximately 70%”.

What about the “tumor response in the same PDX model” value (UZLX-GIST2B) of the same compound?
Its value is “significant tumor regression”.

What about the clinical symptoms [4] of the same compound?
Its clinical symptoms is “No abnormal clinical symptoms were observed”.
